Assay results reported in US7557215B2, “Anthraquinone compounds as anti cancer compounds” (Somanta Limited, priority 2003, dated 2009).
pIC50: −log10 of the molar value. Like-named read-outs stand apart in the source and are kept apart here.

How the values were obtained:
A2780 [1] = system: A2780
A2780 [2] = test: Inhibition of cell growth, A2780 wild type ovarian carcinoma cell line
A2780/cp70 = test: Inhibition of cell growth, cisplatin resistant A2780/cp70 cell line; format: cell-based, human; settings: text b280, b283
[3] = system: human ovarian tumour xenograft (A2780); test: Tumour doubling time, human ovarian tumour xenograft A2780 in mice; format: in vivo; settings: 20 mg/kg i.p.
Text: (§1) Compound HAQ71, with the lowest RF (0.2) of the panel of compounds tested against the cisplatin resistant cells and its chloropropyl-substituted analogue, was selected for in vivo investigation in mice using tumour A2780 and A2780/cp70 cells grown as xenografts in mice. Significant anticancer activity in vivo of HAQ71 and CAQ75 was shown; both compounds exerting similar tumour growth delay in human xenografted wild-type and acquired cisplatin resistant tumours (A2780/cp70). The latter is very refractory to cisplatin and other covalent binding agents and has been characterised with elevated levels of glutathione, alterations in drug uptake/efflux and DNA repair mechanisms including mismatch repair deficiency.

[4] = system: cisplatin resistant variant (A2780/cp70) xenograft; test: Tumour doubling time, cisplatin resistant variant xenograft A2780/cp70 in mice; format: in vivo; settings: 20 mg/kg i.p.
Text: as §1

C[N+](C)([O-])CCNc1ccc(NCC[N+](C)(C)[O-])c2c1C(=O)c1c(O)ccc(O)c1C2=O [AQ4N]
cytotoxicity ratio (CR=IC50 of alkylaminoanthraquinone-di-N-oxide/IC50 alkylaminoanthraquinone) (A2780 [1]): 17,000 | pIC50 (A2780 [2]; read-out: Growth Inhibition (IC50) A2780, A2780, Table 4): < 4.00

CN(C)CCNc1ccc(NCCN2CCCC(CO)C2)c2c1C(=O)c1c(O)ccc(O)c1C2=O (centres unmarked) [HAQ71, 1-[(2-Dimethylamino)ethylamino]-4-[2-(3-hydroxymethyl-piperidin-1-yl)ethylamino]-5,8-dihydroxy-anthracene-9,10-dione]
RF against the cisplatin resistant cells (A2780/cp70): 0.2 | doubling time (days) of tumour xenograft [3]: 5.23 ± 0.39 days | tumour doubling time, percent [3]: 177% | doubling time (days) of tumour xenograft [4]: 4.33 ± 0.16 days | tumour growth delay (%) [4]: 172% | IC50 (A2780 [2]; read-out: Inhibition of cell growth (IC50, nM) A2780, A2780, Table 1): 8.4 nM
